Experimental data as given in patent publication US9271960B2, “Tetrahydrocarbazoles as active agents for inhibiting VEGF production by translational control” (PTC Therapeutics, Inc., priority 2004, dated 2016).
Structures can show the parent of a compound that is named as a salt. Where two headings read alike, the source gives them in different places.

Tested on: VEGF
Assay: Hypoxia-inducible endogenous VEGF expression ELISA in HeLa cells
Format: cell-based
Settings: VEGF protein by ELISA
In short: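 HeLa cells held 24–48 h in hypoxia (1% O2) with a concentration series of compound; VEGF secreted into media quantified by ELISA against a standard curve. Parallel Cell Titer Glo viability under identical conditions gives CC50; EC50 from percent-inhibition curves.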

[1] = Homo sapiens, HeLa, compounds 191-239, hypoxic conditions, read-out: ELISA Activity EC50
[2] = Homo sapiens, HeLa, purchased compounds 156-188, hypoxic conditions, read-out: ELISA Activity
[3] = Homo sapiens, HeLa, purchased compounds 156-188, hypoxic conditions, read-out: ELISA EC50
[4] = Homo sapiens, HeLa, compounds 1-155, hypoxic conditions (1% O2), read-out: ELISA Activity

| EC50 [4] [nM] | Compound | other results |
| --- | --- | --- |
| – | CN1CCN(CC(O)COc2ccc(C3CCCc4c3[nH]c3ccc(Br)cc43)cc2)CC1 (stereo not shown) [Compound 201] | EC50 [1]: 10 to 40 nM |
| – | OCCNC1CCCc2c1[nH]c1ccc(Br)cc21 (stereo not shown) [Compound 168, 2-(6-Bromo-2,3,4,9-tetrahydro-1H carbazol-1-ylamino)-ethanol hydrochloride] | EC50 [2]: > 1000 nM; EC50 [3]: 7720 nM |
| < 10 | Clc1cccc(NC2CCCc3c2[nH]c2ccc(Br)cc32)c1 (stereo not shown) [Compound 20, (6-Bromo-2,3,4,9-tetrahydro-1H-carbol-1-yl)-(3-chloro-phenyl)-amine] | – |
| – | COCCN(C)CCCOc1ccc(C2CCCc3c2[nH]c2ccc(Br)cc32)cc1 (stereo not shown) [Compound 207] | EC50 [1]: 10 to 40 nM |
| > 1000 | Brc1ccc2[nH]c3c(c2c1)CCc1cnoc1-3 [Compound 78, 7-Bromo-4,10-dihydro-5H-1-oxa-2,10-diaza-cyclopenta[a]fluorine] | – |
| – | Cc1ccc(C2c3[nH]c4ccc(Br)cc4c3CCC2O)cc1 (stereo not shown) [Compound 237] | EC50 [1]: 200 to 1000 nM |
| – | OC(COc1ccc(C2CCCc3c2[nH]c2ccc(Cl)cc32)cc1)Cn1cncn1 (stereo not shown) [Compound 222] | EC50 [1]: 40 to 200 nM |
| 10 to 40 | Brc1ccc2[nH]c3c(c2c1)CCCC3NC1CCC(c2ccccc2)CC1 (stereo not shown) [Compound 27, (6-Bromo-2,3,4,9-tetrahydro-1H-carbazol-1-yl)-(4-phenyl-cyclohexyl)-amine] | – |
| 10 to 40 | FC(F)(F)c1ccc(NC2CCCc3c2[nH]c2ccc(C(F)(F)F)cc32)cc1 (stereo not shown) [Compound 140, (4-Trifluoromethyl-phenyl)-(6-trifluoromethyl-2,3,4,9-tetrahydro-1H-carbazol-1-yl)-amine] | – |
| 10 to 40 | O=C(NC1CCCc2c1[nH]c1ccc(Br)cc21)c1cccc(Oc2ccccc2)c1 (stereo not shown) [Compound 30, N-(6-Bromo-2,3,4,9-tetrahydro-1H-carbazol-1-yl)-3-phenoxy-benzamide] | – |
| 200 to 1000 | O=C(NC1CCCc2c1[nH]c1ccc(Br)cc21)c1cc2ccccc2o1 (stereo not shown) [Compound 124, Benzofuran-2-carboxylic acid (6-bromo-2,3,4,9-tetrahydro-1H-carbazol-1-yl)-amide] | – |
| > 1000 | O=C(O)c1ccc2[nH]c3c(c2c1)CCCC3n1cccc1 (stereo not shown) [Compound 120, 8-Pyrrol-1-yl-6,7,8,9-tetrahydro-5H-carbazole-3-carboxylic acid] | – |
| < 10 | COc1ccc(NC2CCCc3c2[nH]c2ccc(Br)cc32)cc1 (stereo not shown) [Compound 4, (6-Bromo-2,3,4,9-tetrahydro-1H-carbazol-1-yl)-(4-methoxy-phenyl)-amine] | – |
| 10 to 40 | Clc1ccc(NC2CCCc3c2[nH]c2ccc(Cl)cc32)cc1 (stereo not shown) [Compound 135, (4-Chloro-phenyl)-(6-chloro-2,3,4,9-tetrahydro-1H-carbazol-1-yl)-amine] | – |
| – | Cc1ccc2[nH]c3c(c2c1)CCCC3NCc1ccc(Cl)cc1 (stereo not shown) [Compound 160, (4-Chloro-benzyl)-(6-methyl-2,3,4,9-tetrahydro-1H-carbazol-1-yl)-amine] | EC50 [2]: 200 to 1000 nM; EC50 [3]: 420 nM |
| > 1000 | O=C(O)C1CCCc2c1[nH]c1ccc(Br)cc21 (stereo not shown) [Compound 85, 6-Bromo-2,3,4,9-tetrahydro-1H-carbazole-1-carboxylic acid] | – |
| < 10 | CC(C)c1ccc(NC2CCCc3c2[nH]c2ccc(Br)cc32)cc1 (stereo not shown) [Compound 8, (6-Bromo-2,3,4,9-tetrahydro-1H-carbazol-1-yl)-(4-isopropyl-phenyl)-amine] | – |
| > 1000 | NC1CCCc2c1[nH]c1ccc(Br)cc21 (stereo not shown) [Compound 89, 6-Bromo-2,3,4,9-tetrahydro-1H-carbazol-1-ylamine] | – |
| 10 to 40 | O=C1c2ccccc2CN1C1CCCc2c1[nH]c1ccc(Br)cc21 (stereo not shown) [Compound 25, 2-(6-Bromo-2,3,4,9-tetrahydro-1H-carbazol-1-yl)-2,3-dihydro-isoindol-1-one] | – |
| – | CC(C)COc1ccc2c(c1)c1c3n2CCNC3CCC1 (stereo not shown) [Compound 167, 8-Isobutoxy-2,3,3a,4,5,6-hexahydro-1H-pyrazino[3,2,1-jk]carbazole] | EC50 [2]: > 1000 nM; EC50 [3]: 6930 nM |
| 40 to 200 | O=C(NC1CCCc2c1[nH]c1ccc(Br)cc21)c1ccc(-c2ccc(Cl)cc2)o1 (stereo not shown) [Compound 125, 5-(4-Chloro-phenyl)-furan-2-carboxylic acid (6-bromo-2,3,4,9-tetrahydro-1H-carbazol-1-yl)-amide] | – |
| – | 3-[(2,3,4,9-Tetrahydro- 1H-carbazol-1-ylamino)- methylene]-1,3-dihydro- indol-2-one [Compound 158] | EC50 (purchased compounds 156-188, hypoxic conditions, read-out: ELISA Activity): 200 to 1000 nM; EC50 (purchased compounds 156-188, hypoxic conditions, read-out: ELISA EC50): 267 nM |
| – | OC(COc1ccc(C2CCCc3c2[nH]c2ccc(Br)cc32)cc1)Cn1ccnn1 (stereo not shown) [Compound 202] | EC50 [1]: < 10 nM |
| – | Clc1ccc2[nH]c3c(c2c1)CCCC3c1ccc(OCC2CO2)cc1 (stereo not shown) [Compound 224] | EC50 [1]: < 10 nM |

| EC50 [4] [nM] | Compound | other results |
| --- | --- | --- |
| < 10 | COc1cccc(NC2CCCc3c2[nH]c2ccc(Br)cc32)c1 (stereo not shown) [Compound 10, (6-Bromo-2,3,4,9-tetrahydro-1H-carbazol-1-yl)-(3-methoxy-phenyl)-amine] | – |
| > 1000 | O=C(O)c1ccn(C2CCCc3c2[nH]c2ccc(Br)cc32)c1 (stereo not shown) [Compound 113, 1-(6-Bromo-2,3,4,9-tetrahydro-1H-carbazol-1-yl)-1H-pyrrole-3-carboxylic acid] | – |
| 200 to 1000 | Brc1ccc2[nH]c3c(c2c1)CCCC3n1ccc(CN2CCOCC2)c1 (stereo not shown) [Compound 64, 6-Bromo-1-(3-morpholin-4-ylmethyl-pyrrol-1-yl)-2,3,4,9-tetrahydro-1H-carbazole] | – |
| 40 to 200 | O/N=C/c1ccn(C2CCCc3c2[nH]c2ccc(Br)cc32)c1 (stereo not shown) [Compound 149, 1-(6-Bromo-2,3,4,9-tetrahydro-1H-carbazol-1-yl)-1H-pyrrole-3-carbaldehyde oxime] | – |
| < 10 | Fc1ccccc1NC1CCCc2c1[nH]c1ccc(Br)cc21 (stereo not shown) [Compound 17, (6-Bromo-2,3,4,9-tetrahydro-1H-carbazol-1-yl)-(2-fluoro-phenyl)-amine] | – |
| > 1000 | Brc1ccc2oc3c(c2c1)CCCC3Nc1ccccc1 (stereo not shown) [Compound 107, (8-Bromo-1,2,3,4-tetrahydro-dibenzofuran-4-yl)-phenyl-amine] | – |
| 40 to 200 | O=C(NC1CCCc2c1[nH]c1ccc(Br)cc21)c1ccc(Cl)nc1 (stereo not shown) [Compound 52, N-(6-Bromo-2,3,4,9-tetrahydro-1H-carbazol-1-yl)-6-chloro-nicotinamide] | – |
| 10 to 40 | Cn1cccc1C(=O)NC1CCCc2c1[nH]c1ccc(Br)cc21 (stereo not shown) [Compound 155, 1-Methyl-1H-pyrrole-2-carboxylic acid (6-bromo-2,3,4,9-tetrahydro-1H-carbazol-1-yl)-amide] | – |
| > 1000 | COC(=O)c1ccc2[nH]c3c(c2c1)CCCC3n1cccc1 (stereo not shown) [Compound 115, 8-Pyrrol-1-yl-6,7,8,9-tetrahydro-5H-carbazole-3-carboxylic acid methyl ester] | – |
| 200 to 1000 | Cc1ccc(C)n1C1CCCc2c1[nH]c1ccc(Br)cc21 (stereo not shown) [Compound 70, 6-Bromo-1-(2,5-dimethylpyrrol-1-yl)-2,3,4,9-tetrahydro-1H-carbazole] | – |
| > 1000 | CC(C)(C)CCNC1CCCc2c1[nH]c1ccc(Br)cc21 (stereo not shown) [Compound 79, (6-Bromo-2,3,4,9-tetrahydro-1H-carbazol-1-yl)-(3,3-dimethyl-butyl)-amine] | – |
| 40 to 200 | O=C(NC1CCCc2c1[nH]c1ccc(Br)cc21)c1cccnc1 (stereo not shown) [Compound 58, N-(6-Bromo-2,3,4,9-tetrahydro-1H-carbazol-1-yl)-nicotinamide] | – |
| < 10 | Brc1ccc2[nH]c3c(c2c1)CCCC3Nc1ccc(Oc2ccccc2)cc1 (stereo not shown) [Compound 9, (6-Bromo-2,3,4,9-tetrahydro-1H-carbazol-1-yl)-(4-phenoxy-phenyl)-amine] | – |
| 200 to 1000 | Brc1ccc2[nH]c3c(c2c1)CCCC3N1CC=CC1 (stereo not shown) [Compound 65, 6-Bromo-1-(2,5-dihydro-pyrrol-1-yl)-2,3,4,9-tetrahydro-1H-carbazole] | – |
| – | Cc1ccc2c(c1)c1c3n2CCN(C(=O)CN2CCN(C(=O)c4ccco4)CC2)C3CCC1 (stereo not shown) [Compound 170, 2-[4-(Furan-2-carbonyl)-piperazin-1-yl]-(8-methyl-1,2,3,3a,4,5,6-hexahydro-pyrazino[3,2,1-jk]carbazol-3-yl)-ethanone] | EC50 [2]: > 1000 nM; EC50 [3]: > 10000 nM |
| < 10 | Brc1ccc2[nH]c3c(c2c1)CCCC3Nc1ncccn1 (stereo not shown) [Compound 141, (6-Bromo-2,3,4,9-tetrahydro-1H-carbazol-1-yl)-pyrimidin-2-yl-amine] | – |
| > 1000 | O=C1CCCc2c1[nH]c1cc(Br)ccc21 [Compound 110, 7-Bromo-2,3,4,9-tetrahydro-carbazol-1-one] | – |
| – | COc1ccc(C2CCCc3c2[nH]c2ccc(Br)cc32)cc1 (stereo not shown) [Compound 192] | EC50 [1]: < 10 nM |
| 40 to 200 | Fc1ccc(OC2CCCc3c2[nH]c2ccc(Br)cc32)cc1 (stereo not shown) [Compound 54, 6-Bromo-1-(4-fluoro-phenoxy)-2,3,4,9-tetrahydro-1H-carbazole] | – |
| 10 to 40 | Cc1cc(C)cc(NC2CCCc3c2[nH]c2ccc(Br)cc32)c1 (stereo not shown) [Compound 23, (6-Bromo-2,3,4,9-tetrahydro-1H-carbazol-1-yl)-(3,5-dimethyl-phenyl)-amine] | – |
| > 1000 | Brc1ccc2[nH]c3c(c2c1)CCCC3NCC1CCCO1 (stereo not shown) [Compound 77, (6-Bromo-2,3,4,9-tetrahydro-1H-carbazol-1-yl)-(tetrahydro-furan-2-ylmethyl)-amine] | – |
| 40 to 200 | O=C(NC1CCCc2c1[nH]c1ccc(Br)cc21)c1ccsc1 (stereo not shown) [Compound 153, Thiophene-3-carboxylic acid (6-bromo-2,3,4,9-tetrahydro-1H-carbazol-1-yl)-amide] | – |
| 40 to 200 | O=C(NC1CCCc2c1[nH]c1ccc(Br)cc21)c1ccc([N+](=O)[O-])o1 (stereo not shown) [Compound 146, 5-Nitro-furan-2-carboxylic acid (6-bromo-2,3,4,9-tetrahydro-1H-carbazol-1-yl)-amide] | – |
